The text below walks through data of the pKa sets of Baltruschat and Czodrowski (2020).

The conditions of one series: acidic group.
The term pKa denotes the pH at which an ionisable group is half protonated. A high value points to a weaker acid or stronger base. For `COc1ccc(NC(=S)c2cccc(Br)c2)cc1`, the pKa is 11.

The molecule `CC1(C)[C@H]2CC[C@@]1(C)[C@@H](O)[C@@H]2C(=O)O` displayed a pKa of 2.74.

As for `Sc1cc2ccccc2cn1`, the pKa amounted to 8.58.

Molecule `C[NH+](C)CCCNC(=O)/C=N/O` came in with a pKa of 8.68. Consider `C[Si](C)(C)c1ccc(C(=O)O)cc1`, for which the pKa was 4.27. On to `CC(C)(C)C(=O)C(=O)O`, for which the pKa amounted to 2.3.

The molecule `CCOc1ccc(C(=O)O)cc1` gave a pKa of 4.64. Same read-out and setting: then `N#CC(C#N)=C(C#N)C(C#N)C#N`, with 1.9. Take `c1coc(CSc2ncnc3nc[nH]c23)c1`: the pKa amounted to 8.42. On the same count and under the same terms, then `Cc1[nH]c2ccccc2c1CC(=O)O`, with 4.67; and `CC(C)(C#N)CC(=O)O`, with 4.04. For `O=C1NC(=O)c2cc([N+](=O)[O-])ccc21`, the pKa turned out to be 8.68. Molecule `O=C([O-])CNC(=O)c1ccccc1O` showed a pKa of 8.16. Molecule `[NH3+]C(Cc1ccc[nH+]c1)C(=O)O` (stereo not drawn) had a pKa of 1.69.

As for `N#Cc1cccc(C(=O)O)c1`, the pKa worked out at 3.6. Still for that read-out and setting: then `O=C(O)CCC(=O)c1cccc2ccccc12`, with 4.48. As for `Cc1coc(C)c1C(=O)O`, the pKa came to 4.55. The pKa values of the last two molecules are within 0.2 log units of each other. In turn, `COc1ccc(O)c(/N=N/c2nc(C)cs2)c1` yielded a pKa of 7.98. With `O=[N+]([O-])c1cc(Br)ccc1O`, the pKa was 6.36.

The molecule `O=S(=O)(Nc1ccccn1)c1ccccc1` gave a pKa of 8.2. The molecule `C[NH+]1C[C@H](C(=O)O)C=C2c3cccc4[nH]cc(c34)C[C@@H]21` registered a pKa of 3.25. The same measure, in the same setting: then `CC1(C)SC(=O)NC1=O`, with 6.64; and `CCC1(C)OC(=O)NC1=O` (stereo not drawn), with 6; and `Cc1ccc(NN=C(C#N)C#N)cc1`, with 6.75. Take `CCCC(O)C(C(=O)O)c1ccc(-c2ccccc2)cc1` (stereo not drawn): the pKa was 4.01. Molecule `CCCS` showed a pKa of 10.6. Still for that read-out and setting: then `N#CC(CCC(=O)O)c1ccccc1` (stereo not drawn), with 4.4; and `Oc1cnoc1`, with 7.75; and `COc1cccc(S(N)(=O)=O)c1`, with 9.39. As to `O=C1COC(=O)C1[N+](=O)[O-]` (stereo not drawn), the pKa was 1.68. In turn, `CC(=O)c1cc([N+](=O)[O-])ccc1C(=O)O` displayed a pKa of 3.06.

`O=C(O)/C=C/CCl` had a pKa of 4.14. Consider `Cn1nc(Cl)nc1NN=O`, for which the pKa worked out at 4.03. For the molecule `Oc1cncc2cccnc12`, the pKa was found to be 8.33. `N#CC(CC(=O)O)c1ccccc1` (stereo not drawn) showed a pKa of 3.79. Take `Cc1cc(C(=O)O)cs1`: the pKa worked out at 4.24. For `O=S1(=O)N=C[N-]c2nc[nH]c21`, the pKa came out at 11. Molecule `O=C(O)CSc1cccc([N+](=O)[O-])c1` yielded a pKa of 3.4. On the same count and under the same terms, then `C=CCC1(C2=CCCCC2)C(=O)[N-]C(=S)NC1=O`, with 11.7; and `CCCc1c(C)nn(-c2ccccc2)c1O`, with 11.4. `CC1(C)CCC(=O)N1O` gave a pKa of 8.7. For `O=C1CCC(=O)N1O`, the pKa was 6.04. `O=C1C[C@@H](C(=O)O)[C@@H](C(=O)[O-])O1` came in with a pKa of 4.5.

`Cc1cc(I)c(O)c(I)c1`: the pKa worked out at 6.

On to `CCS(=O)O`, for which the pKa is 2.27. Molecule `Cc1nnnn1CC(=O)O` displayed a pKa of 2.16. For `Nc1nc[nH+]c2c1ncn2CCOCP(=O)(O)O`, the pKa amounted to 1.22. The same measure, in the same setting: with `Nc1cccc[n+]1O` the figure was 2.67. With `O=CNOC(=O)/C=C/c1ccccc1`, the pKa was 5.9. In turn, `Cc1ccc([N+](=O)[O-])c(C(=O)O)c1` displayed a pKa of 2.55. On the same count and under the same terms, then `O=C([O-])[C@@H]1CC[C@@H](C(=O)O)[Se][Se]1`, with 3.67; and `CC(C)c1csc(C(=O)O)c1`, with 3.64; and `[NH3+][C@H]1CC(=O)NC1=O`, with 5.9.

As for `CCCOc1ccccc1C(=O)O`, the pKa amounted to 4.24.

The molecule `O=C(O)c1cc2ccccc2cc1O` gave a pKa of 2.71.

Take `CC(=O)c1ccc([N+](=O)[O-])cc1`: the pKa worked out at 16.6. For the molecule `O=C(O)CC(O)c1ccccc1` (stereo not drawn), the pKa amounted to 4.4. Regarding `[NH3+]CCCCCC(=O)O`, the pKa came to 4.37.

As for `O=C(O)[C@H]1CCCC[C@@H]1O`, the pKa worked out at 4.68.

Molecule `Cc1ccc(I)cc1C(=O)O` came in with a pKa of 3.62. `COc1cc2c(cc1OC)[C@@H]1Cc3ccc(OC)c(O)c3[C@H](C2)N1C` yielded a pKa of 9.85. On the same count and under the same terms, with `NC(=O)C[C@H](N)C(N)=O` the figure was 7; with `Cc1cc(C(=O)O)ccc1[N+](=O)[O-]`, 3.65.

The same series, now with this note: basic group.
Molecule `NC(=O)CCCCc1ccncc1` came in with a pKa of 5.92.

In turn, `CCNC[Si](C)(C)C` had a pKa of 11.1.

Take `Sc1cc2ccccc2cn1`: the pKa worked out at 0.39. Still for that read-out and setting: with `Cc1cc(=O)n(C)cn1` the figure was 2.1.

For `COc1cccc(C(=O)NC2CC3CCC(C2)N3Cc2ccccc2)c1OC` (stereo not drawn), the pKa amounted to 8.91. For `c1ccc(C(CCN2CCCCC2)c2ccccc2)cc1`, the pKa was determined as 8.96. The pKa values of the last two molecules are within 0.2 log units of each other. With `N[C@H]1C[C@@H]2CCCC[C@H]2C[C@@H]1N`, the pKa is 9.97.

As for `CC(C)C=O`, the pKa was determined as 15.7. For the molecule `CC[C@]1(O)C[C@@H](C)N[C@@H]2CCCC[C@H]21`, the pKa stood at 10.3. Regarding `CCN(CC)CC(C)Nc1c2ccc(Cl)cc2nc2ccc(OC)cc12` (stereo not drawn), the pKa was 9.65. Same read-out and setting: then `NCCCCCO`, with 10.5; and `Cn1c(=O)c2[nH]c[nH+]c2n(C)c1=O`, with 0.7; and `CN(C)c1ccc([N+](=O)[O-])cc1`, with 0.69.

As to `N#Cc1cncc2ccccc12`, the pKa was 2.04. Still for that read-out and setting: with `CCNN(C)C` the figure was 6.58; with `Nc1cccc2nc3ccccc3cc12`, 6.04. In turn, `Cn1ccnc1N=[N+]=[N-]` yielded a pKa of 4.05.

In turn, `Clc1cccc(-c2ccccn2)n1` gave a pKa of 3.7. The molecule `C[C@H](CCCNCc1ccccc1)[C@H]1CC[C@H]2[C@@H]3CC[C@@H]4C[C@H](O)CC[C@]4(C)[C@H]3C[C@H](O)[C@]12C` showed a pKa of 9.07. In turn, `CSC(=N)N` displayed a pKa of 9.83. For the molecule `C=CCN1CCOCC1`, the pKa was 7.05.

Molecule `CCCN(CCC)CCc1c[nH]c2ccccc12` displayed a pKa of 8.6. Regarding `COC(=O)C1CN2CCC1CC2` (stereo not drawn), the pKa amounted to 9.4. In turn, `O[C@@H]1[C@H](O)[C@@H](n2cnc3cncnc32)OC[C@@H]1O` showed a pKa of 1.8. As to `CC[NH+](CC)CCNc1ccnc2ccccc12`, the pKa came to 8. `O=C(NCCCN1CCOCC1)c1ccc(Cl)cc1` had a pKa of 6.81. As to `COc1ccc(O)c(/N=N/c2nc(C)cs2)c1`, the pKa is 0.77.

In turn, `CN(C)Cc1ccccc1` registered a pKa of 8.97. As for `Cc1ccc(CN)cc1N`, the pKa was found to be 9.77. On the same count and under the same terms, then `Nc1ccc2ccncc2c1`, with 6.2; and `Cc1cc(-c2ccccc2)nnc1NCCN1CCOCC1`, with 7.05. `Cc1cccc2[nH]cnc12` had a pKa of 5.67.

On to `c1ccc(-c2ccoc2)nc1`, for which the pKa came to 4.65. `C=C[C@H]1C[NH+]2CC[C@@H]1C[C@H]2[C@H](O)c1ccnc2ccc(OC)cc12` yielded a pKa of 4.22. `N/C(=N\O)c1ccccc1` registered a pKa of 4.97. `CNC(=O)c1ccncc1`: the pKa stood at 3.8. Take `Nc1cccc2nc3ccccc3c(N)c12`: the pKa came out at 11.

The molecule `CCOC(=O)c1cnc(N(C)C)s1` returned a pKa of 2.77. `Cc1ccc(NN=C(C#N)C#N)cc1` had a pKa of -0.83. The molecule `CC[n+]1ccc([O-])nc1[S-]` came in with a pKa of 8.7. As for `O=C(Cc1cnccn1)c1ccccc1`, the pKa was 0.33. Consider `CN(C)c1cccc([N+](C)(C)C)c1`, for which the pKa turned out to be 2.6.

In turn, `COCCN(C)C` returned a pKa of 8.96.

`CCCNCCN` registered a pKa of 10.3. `CCCCCCCCCCCCCCCN` showed a pKa of 10.6. `c1cc2nccnc2cn1` returned a pKa of 2.5. For `Cc1cc(-n2[nH+]c(C)cc2C)[nH]n1`, the pKa is -2.4. As for `CCN(CC)CC1CO1` (stereo not drawn), the pKa was 8.55. On the same count and under the same terms, then `N[C@@H](Cc1c[nH]cn1)C(=O)N[C@@H](Cc1c[nH]cn1)C(=O)[O-]`, with 7.8. Regarding `Nc1cc(N)c2ccccc2n1`, the pKa was found to be 9.45. Still for that read-out and setting: then `NCCCC[NH2+]CCCN`, with 9.86; and `CCc1c(-c2ccccc2)nn(C2CCN(C)CC2)c1[O-]`, with 9.15.

In turn, `CC1CCCC(C)(C)N1` (stereo not drawn) had a pKa of 11.3. `NC(CCc1ccc([N+](=O)[O-])cc1)C(=O)[O-]` (stereo not drawn) had a pKa of 9.1. On the same count and under the same terms, with `Cc1ccc2c(c1)NCCN2` the figure was 4.97. Molecule `Cc1cc2nccc(NCCC[NH+](C)C)c2cc1[N+](=O)[O-]` returned a pKa of 7.38.

Consider `Cn1cc[nH+]c1N=[N+]=[N-]`, for which the pKa was found to be 0.5.

Molecule `c1ccc(CC2CCCN2)cc1` (stereo not drawn) gave a pKa of 10.3. On to `Cc1cn2nc(-c3ccccc3)ccc2n1`, for which the pKa was determined as 5.09. Same read-out and setting: then `Nc1nc[nH+]c2c1ncn2CCOCP(=O)(O)O`, with -0.35. For `CC(=O)n1ccnc1Cc1ncc[nH]1`, the pKa came to 6.6. Take `C=CC(=O)NCCCN(C)C`: the pKa stood at 9.23. `NC[C@@H](O)[C@H]1NC(N)=N[C@@H]1C(=O)[O-]` came in with a pKa of 11.9. Consider `CCCCOc1ccc(OCCCN2CCOCC2)cc1`, for which the pKa worked out at 6.24.

`Nc1cccc2cccc(N)c12` gave a pKa of 4.6. The same measure, in the same setting: then `CCCCCCN(CC(C)O)CC(O)CC` (stereo not drawn), with 8.9.

The molecule `O=[N+]([O-])c1ccc2[nH]c(C(F)(F)F)nc2c1` gave a pKa of 0.18. In turn, `CCCNCCNCCC` gave a pKa of 10.3. Turning to `CSc1ccc(N)cc1Cl`, the pKa was 3.38. Molecule `CC(C)N(c1ccccc1)C(C)C` yielded a pKa of 6.19. The molecule `CNC(=S)c1ccccc1` registered a pKa of -2.5. The same measure, in the same setting: with `Nc1cccc2ncncc12` the figure was 3.57; with `Cc1cc([S-])ncn1`, 7.3; with `CN1CCC(NN)CC1`, 8.85. In turn, `O=C([O-])[C@@H]1Cc2[nH]cnc2C[NH2+]1` returned a pKa of 4.73. For `C#C[C@]1(O)C[C@@H](C)N[C@H]2CCCC[C@@H]21`, the pKa turned out to be 9.29. The same measure, in the same setting: with `NCCSCCN` the figure was 9.64. Molecule `Cc1ccnnc1` returned a pKa of 3.22. The molecule `c1ccc2c(c1)NCCN2` showed a pKa of 4.84. The molecule `C=CCN1CC[C@]23c4c5ccc(O)c4O[C@H]2[C@@H](O)C=C[C@H]3[C@H]1C5` came in with a pKa of 7.83.
